Laboratory results reported in PMC9775191, “A Subset Screen of the Compounds Australia Scaffold Library Identifies 7-Acylaminodibenzoxazepinones as Potent and Selective Hits for Anti-Giardia Drug Discovery” (Biomedicines, 2022).

Tested on: G. duodenalis BRIS/91/HEPU/1279
Test: Primary Giardia screen at 10 µM (live-cell imaging, automated counting)
Type: cell-based, Giardia duodenalis
Conditions: for % Inhibition n=1 48h / % Inhibition n=1 24h: first singlicate assay; for % Inhibition n=2 24h / % Inhibition n=2 48h: re-assessment
Method in brief: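 One concentration, 10 μM, is screened per compound in singlicate under microaerophilic gas (3% O2, 5% CO2, N2). Inhibition comes from automated image-based counts at 24 and 48 h, relative to 0.2% DMSO controls.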

Row | SMILES | % Inhibition n=1 48h [%] | other results
1 | O=C(CCc1ccc(F)cc1)Nc1ccn(Cc2ccccn2)n1 [SN00775953] | 0.0 | –
2 | O=S1(=O)CCC(Nc2nc(-c3ccccn3)nc3scc(-c4ccccc4)c23)C1 (stereo not drawn) [SN00776030] | 24.9 | –
3 | NC1=Nc2nc3ccccc3n2C(c2ccc(-c3ccc(F)cc3)o2)N1 (stereo not drawn) [SN00776094] | 31.0 | Average % Inhibition 24h: 0.0%; % Inhibition n=1 24h: 0.0%; % Inhibition n=2 24h: 0.0%; Average % Inhibition 48h: 18.4%; % Inhibition n=2 48h: 5.8%
4 | CCn1c(C2NC(N)=Nc3nc4ccccc4n32)nc2ccccc21 (stereo not drawn) [SN00776112] | 5.4 | –
5 | Cc1nc2sccn2c1-c1nc(-c2ccccc2)c(C(=O)c2ccc3c(c2)NC(=O)CO3)s1 [SN00776123] | 7.0 | –
6 | Cc1nc2sccn2c1-c1nc(-c2cccc3ccccc23)cs1 [SN00776128] | 37.4 | –
7 | CS(=O)(=O)c1ccc(-c2csc(-n3nccc3C(F)(F)F)n2)cc1 [SN00776135] | 7.7 | –
8 | COc1ccc(-c2csc(-n3nccc3C(F)(F)F)n2)cc1OC [SN00776140] | 27.9 | –
9 | Cc1cc(NC(=O)c2ccc([N+](=O)[O-])cc2)n(-c2nc3ccccc3[nH]2)n1 [SN00776157] | 6.0 | –
10 | NC1=C(c2nc3ccccc3s2)CC(=O)N1C1CC1 [SN00776353] | 0.0 | –
11 | Cc1sc(-n2cccc2)c(C(=O)NC2CCCCCC2)c1C [SN00776382] | 0.0 | –
12 | CCc1nnc(NC(=O)c2ccsc2-n2c(C)ccc2C)s1 [SN00776389] | 11.7 | –
13 | c1ccc(-c2cn3nc(-c4ccccc4)n4c3c2CCCC4)cc1 [SN00776412] | 0.0 | –
14 | FC(F)Oc1ccc(-c2csc(Cc3nnc4n3CCCCC4)n2)cc1 [SN00776417] | 34.2 | Average % Inhibition 24h: 12.3%; % Inhibition n=1 24h: 22.0%; % Inhibition n=2 24h: 2.6%; Average % Inhibition 48h: 19.6%; % Inhibition n=2 48h: 5.0%
15 | CCN(c1ccc(-c2csc(Cc3nnc4n3CCCCC4)n2)cc1)S(C)(=O)=O [SN00776436] | 17.3 | –
16 | O=C(C1=C(O)C(=O)N(CCN2CCOCC2)C1c1ccncc1)c1ccccc1 (stereo not drawn) [SN00776455] | 0.7 | –
17 | CC1CN(c2nc3c(c(=O)[nH]c(=O)n3C)n2CC(=O)O)CC(C)O1 (stereo not drawn) [SN00776554] | 4.6 | –
18 | O=C(Nc1ccc2c(c1)OCO2)C1CCN(Cc2nnnn2-c2ccccc2)CC1 [SN00776590] | 4.9 | –
19 | CCN(CC)CCN1C(=O)C(O)=C(C(=O)c2cccs2)C1c1ccc(C)o1 (stereo not drawn) [SN00776616] | 15.0 | –

Row | SMILES | % Inhibition n=1 48h [%] | other results
20 | CN(C)CCCN1C(=O)C(O)=C(C(=O)c2cc(Cl)ccc2O)C1c1ccco1 (stereo not drawn) [SN00776642] | 14.6 | –
21 | CCOC(=O)c1sc(N2C(=O)C(O)=C(C(=O)c3ccco3)C2c2ccc(OC)cc2)nc1C (stereo not drawn) [SN00776656] | 6.9 | –
22 | Cc1c(C(=O)Nc2cc(-c3ccncc3)n[nH]2)cccc1[N+](=O)[O-] [SN00776775] | 37.2 | Average % Inhibition 24h: 6.4%; % Inhibition n=1 24h: 12.8%; % Inhibition n=2 24h: 0.0%; Average % Inhibition 48h: 21.4%; % Inhibition n=2 48h: 5.6%
23 | O=C(Nc1nnc(-c2ccccn2)[nH]1)C1CC(=O)N(CC(F)(F)F)C1 (stereo not drawn) [SN00776806] | 9.5 | –
24 | Cn1c(=O)[nH]c(=O)c2c1nc(N1CCNCC1)n2Cc1ccc(Br)cc1 [SN00776836] | 0.0 | –
25 | O=C(CCC(=O)N1CCCC1c1nc2ccccc2[nH]1)c1ccccc1 (stereo not drawn) [SN00776900] | 28.7 | –
26 | CCCNC(=O)CCNC(=O)N1CCCC1c1nc2cc(C)ccc2[nH]1 (stereo not drawn) [SN00776915] | 37.1 | –
27 | Cc1cccc(C)c1NC(=O)c1cc(-c2ccccc2)nc2c1cnn2Cc1cccnc1 [SN00776937] | 17.5 | –
28 | CC(=O)Nc1cc(NC(=O)c2cc(-c3ccccc3)nc3c2cnn3Cc2cccnc2)ccc1F [SN00776945] | 50.1 | Average % Inhibition 24h: 0.0%; % Inhibition n=1 24h: 0.0%; % Inhibition n=2 24h: 0.0%; Average % Inhibition 48h: 25.1%; % Inhibition n=2 48h: 0.0%
29 | Cc1ccc(NC(=O)Cc2nc(-c3ccc4c(c3)CC(=O)N4C)cs2)cc1 [SN00777029] | 10.0 | –
30 | CN1C(=O)Cc2cc(-c3csc(N=C(N)N)n3)ccc21 [SN00777034] | 0.0 | –
31 | CS(=O)(=O)N1CCCc2cc(-c3csc(N)n3)ccc21 [SN00777047] | 7.2 | –
32 | CCOC(=O)c1sc2ncnc(Nc3cn[nH]c3)c2c1C [SN00777183] | 42.7 | Average % Inhibition 24h: 0.0%; % Inhibition n=1 24h: 0.1%; % Inhibition n=2 24h: 0.0%; Average % Inhibition 48h: 30.8%; % Inhibition n=2 48h: 18.9%
33 | COc1ccc(C(=O)N2c3ccccc3NC(=O)CC2C)cc1OC (stereo not drawn) [SN00777269] | 0.0 | –
34 | CCN(CC)S(=O)(=O)c1ccc(Nc2ccn(CCc3ccccn3)n2)c([N+](=O)[O-])c1 [SN00777378] | 39.2 | Average % Inhibition 24h: 10.7%; % Inhibition n=1 24h: 21.3%; % Inhibition n=2 24h: 0.0%; Average % Inhibition 48h: 25.2%; % Inhibition n=2 48h: 11.3%
35 | COc1cccc(N2CCN(C(=O)c3ccc4noc(-c5ccccc5)c4c3)CC2)c1 [SN00777397] | 56.5 | Average % Inhibition 24h: 9.9%; % Inhibition n=1 24h: 17.2%; % Inhibition n=2 24h: 2.5%; Average % Inhibition 48h: 28.2%; % Inhibition n=2 48h: 0.0%
36 | O=C(c1ccccc1)N1CCN(C(=O)c2ccc3noc(-c4ccccc4)c3c2)CC1 [SN00777400] | 15.8 | –
37 | CC(=O)Nc1ccc(C(=O)OCc2cc(-c3cccs3)on2)s1 [SN00777515] | 14.0 | –
38 | Cc1nnc(NC(=O)c2ccc3c(=O)n4c(nc3c2)CCCCCC4)s1 [SN00777547] | 37.7 | –

Row | SMILES | % Inhibition n=1 48h [%] | other results
39 | Cn1nc2c(c1NC(=O)c1cccc(NC(=O)C(C)(C)C)c1)CCC2 [SN00777576] | 0.0 | –
40 | COC(=O)c1cc(C(=O)Nc2c3c(nn2C)CCC3)cc([N+](=O)[O-])c1 [SN00777586] | 12.1 | –
41 | O=C(c1cc(C2CC2)nc2ccccc12)N1CC2CCC1C2 (stereo not drawn) [SN00777604] | 18.4 | –
42 | O=C(CN1C(=O)CC2(CCCCC2)C1=O)Nc1ccc([N+](=O)[O-])cc1 [SN00777618] | 47.2 | –
43 | Cc1cc(C2CCCN2Cc2cc(-c3ccco3)on2)on1 (stereo not drawn) [SN00777724] | 35.3 | –
44 | CCC(=O)N1CCCC1C1CCCN1Cc1cn2c(C)cccc2n1 (stereo not drawn) [SN00777763] | 16.6 | –
45 | O=c1n(Cc2ccc(F)cc2)nnn1-c1ccccc1 [SN00777772] | 48.5 | –
46 | O=C(NCCSc1ccc(Cl)cc1)c1cc(S(=O)(=O)N2CCOCC2)c[nH]1 [SN00777799] | 7.9 | –
47 | Cc1cccc(OCC(=O)N2CCN(Cc3nnsc3Cl)CC2)c1C [SN00777844] | 35.2 | –
48 | CCc1nc(CN2CCCN(C(=O)C3CCC3)CC2)cs1 [SN00777931] | 3.9 | –
49 | Cc1onc(-c2ccccc2)c1-c1nnc(CN2CCCN(CC(=O)NC(C)(C)C)CC2)o1 [SN00777957] | 2.0 | –
50 | O=C1C(=O)N(Cc2coc(-c3ccc(Cl)cc3)n2)C(=O)N1Cc1ccccc1 [SN00777999] | 18.6 | –
51 | CCN1C(=O)C(=O)N(Cc2coc(-c3ccc(C)cc3)n2)C1=O [SN00778011] | 28.7 | –
52 | CCCNC(=O)CN1CCN(c2nc3ccccn3c2[N+](=O)[O-])CC1 [SN00778045] | 31.4 | –
53 | Cn1cccc1C1CCCCCN1C(=O)CCSCc1nc2sc3c(c2c(=O)[nH]1)CCC3 (stereo not drawn) [SN00778065] | 67.7 | Average % Inhibition 24h: 0.2%; % Inhibition n=1 24h: 0.0%; % Inhibition n=2 24h: 0.4%; Average % Inhibition 48h: 38.7%; % Inhibition n=2 48h: 9.8%
54 | Cc1ccc(-c2nnn(CC(=O)N3CCCCCC3c3cccn3C)n2)cc1 (stereo not drawn) [SN00778086] | 56.5 | Average % Inhibition 24h: 2.1%; % Inhibition n=1 24h: 0.0%; % Inhibition n=2 24h: 4.1%; Average % Inhibition 48h: 28.3%; % Inhibition n=2 48h: 0.0%
55 | CCc1noc(C)c1C(=O)N1CCCN(Cc2csc(C)n2)CC1 [SN00778114] | 29.4 | –
56 | Cc1ccc(S(=O)(=O)N2CCCN(C(=O)c3c[nH]nc3-c3ccc(F)cc3)CC2)cc1 [SN00778123] | 40.4 | –
57 | CC(=O)N1CCCN(C(=O)c2cnn(C(C)(C)C)c2C)CC1 [SN00778131] | 0.0 | –
